The assay has as its target T1, β-glucocerebrosidase, p.L444P mutation (GM08760A fibroblasts) (Homo sapiens, UniProt P04062, L483P).
T1 construct: host or cells: human Gaucher patient fibroblasts GM08760A, homozygous L444P
T1 sequence (P04062 40-536 L483P): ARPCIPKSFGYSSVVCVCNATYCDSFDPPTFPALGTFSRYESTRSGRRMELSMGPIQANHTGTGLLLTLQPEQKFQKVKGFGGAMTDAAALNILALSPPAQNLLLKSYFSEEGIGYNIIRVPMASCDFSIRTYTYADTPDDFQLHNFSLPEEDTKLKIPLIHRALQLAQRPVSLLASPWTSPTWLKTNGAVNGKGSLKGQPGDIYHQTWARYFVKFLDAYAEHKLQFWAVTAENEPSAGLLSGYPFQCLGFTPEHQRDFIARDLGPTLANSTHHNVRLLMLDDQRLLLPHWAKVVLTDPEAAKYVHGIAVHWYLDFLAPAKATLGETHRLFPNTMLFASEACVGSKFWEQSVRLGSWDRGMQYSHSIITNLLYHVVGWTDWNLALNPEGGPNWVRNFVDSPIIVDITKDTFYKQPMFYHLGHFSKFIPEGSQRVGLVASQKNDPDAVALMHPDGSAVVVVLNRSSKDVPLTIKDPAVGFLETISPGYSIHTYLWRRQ
Nature of the assay: Enhancement of β-glucocerebrosidase activity measured in Gaucher disease fibroblasts (L444P). Format: cell-based. As to conditions: increase in enzyme activity vs non-treated cells, GBA fibroblasts bearing L444P. Here is the method: Enhancement of β-Glucocerebrosidase Activity Measured in Gaucher Disease Fibroblasts Materials
Human fibroblasts from a patient with Gaucher disease homozygous for p.L444P mutation (GM08760A) were purchased from Coriell Institute for Medical Research (Camden, N.J., USA).
Fibroblasts were seeded at 5×10^3 cells per well in 96-well cell culture plates (Corning, N.Y., USA) in Dulbecco's Modified Eagle's Media (DMEM) supplemented with 10% of fetal bovine serum (FBS), 1% penicillin/streptomycin (P/S) (Thermo Fisher Scientific, Waltham, Mass., USA) and grown at 37° C., 5% CO2 overnight for cell attachment. Subsequently, cells were incubated in the absence or presence of the compounds at the desired concentration for 4 days. After incubation, cells were washed twice with phosphate-buffered saline (PBS) and enzyme activity assay was performed.
β-glucocerebrosidase activity in intact cultured cells was measured by using 4-methylumbelliferyl-β-D-glucopyranoside substrate (Apollo Scientific, UK). Briefly, cells were incubated with 4-MU-β-D-glucopyranoside in 0.1 M acetate buffer pH=4 at 37° C. for 1 hour. […] The liberated 4-MU was measured on a GloMax Discover plate reader (Promega, Madison, Wis., USA) with and excitation at 340 nm and emission at 460 nm. Enzyme activities were expressed in treated cells as X-fold increase in comparison with non-treated cells (X=1 represents no enhancement).
The capacity of the compounds of the disclosure to produce an increase in enzyme activity in GBA fibroblasts bearing L444P at concentrations between 6 and 50 μM is denoted as follows:
The following compounds listed in Table 2 were purchased (from Enamine, Princeton, Asinex, Vistas-M, and OSSK_541352) and tested in the assay as described above.

Setting [1] is: concentrations between 6 and 50 μM, 4 days incubation.
Setting [2] is: commercially available compounds, 6-50 μM, 4 days.

For `COc1cccc(Nc2cc(CN(C)c3cccc(OC)c3)nc(N)n2)c1` [Example 51], the “Activity L444P” value under setting [1] was “C (Increase in comparison with non-treated of 1.2-1.7 fold is shown as C)”.

`Cc1ccc(CN(C)Cc2cc(Nc3ccc(C)cc3)nc(N)n2)cc1` [Example 34, 6-((Methyl(4-methylbenzyl)amino)methyl)-N^4-p-tolylpyrimidine-2,4-diamine]: the “Activity L444P” value under setting [1] is “B (Increase in comparison with non-treated of >1.7-2.0 fold is shown as B)”.

On to `Nc1nc(CN2CCCC2c2ccccc2)nc(Nc2ccc(F)cc2)n1` (centres unmarked) [N2-(4-fluorophenyl)-6-((2-phenylpyrrolidin-1-yl)methyl)-1,3,5-triazine-2,4-diamine], for which the “Activity L444P” value under setting [2] is given as “B (Increase in comparison with non-treated of >1.7-2.0 fold is shown as B)”.

As to `Cc1ccc(Nc2nc(N)cc(CN(C)Cc3ccccc3)n2)cc1` [Example 23, 6-((benzyl(methyl)amino)methyl)-N^2-p-tolylpyrimidine-2,4-diamine], the “Activity L444P” value under setting [1] is “B (Increase in comparison with non-treated of >1.7-2.0 fold is shown as B)”.

On to `Cc1ccc(Nc2cc(CN(C)Cc3ccc(C#N)cc3)nc(N)n2)cc1` [Example 57, 4-((((2-Amino-6-(p-tolylamino)pyrimidin-4-yl)methyl)(methyl)amino)methyl)benzonitrile], for which the “Activity L444P” value under setting [1] is on record as “C (Increase in comparison with non-treated of 1.2-1.7 fold is shown as C)”.

With `Cc1ccc(Nc2cc(CN(C)Cc3ccncc3)nc(N)n2)cc1` [Example 60, 6-((Methyl(pyridin-4-ylmethyl)amino)methyl)-N^4-p-tolylpyrimidine-2,4-diamine], the “Activity L444P” value under setting [1] is “C (Increase in comparison with non-treated of 1.2-1.7 fold is shown as C)”.

On to `CCc1ccc(CN(C)Cc2cc(Nc3cccc(OC)c3)nc(N)n2)cc1` [Example 40, 6-(((4-Ethylbenzyl)(methyl)amino)methyl)-N^4-(3-methoxyphenyl)pyrimidine-2,4-diamine], for which the “Activity L444P” value under setting [1] is “B (Increase in comparison with non-treated of >1.7-2.0 fold is shown as B)”.

As for `COc1ccccc1Nc1cc(CN(C)Cc2ccccc2)nc(N)n1` [Example 15, 6-((benzyl(methyl)amino)methyl)-N^4-(2-methoxyphenyl)pyrimidine-2,4-diamine], the “Activity L444P” value under setting [1] was “B (Increase in comparison with non-treated of >1.7-2.0 fold is shown as B)”.

In the case of `Cc1ccc(Nc2cc(N)nc(CN(C)Cc3ccccc3)n2)cc1` [Example 22, 2-((Benzyl(methyl)amino)methyl)-N^4-(p-tolyl)pyrimidine-4,6-diamine], the “Activity L444P” value under setting [1] is “B (Increase in comparison with non-treated of >1.7-2.0 fold is shown as B)”.

`COc1ccccc1Nc1cc(N)nc(CN(C)Cc2ccccc2)n1` [Example 63, 2-((Benzyl(methyl)amino)methyl)-N^4-(2-methoxyphenyl)pyrimidine-4,6-diamine]: under setting [1], the “Activity L444P” value is on record as “C (Increase in comparison with non-treated of 1.2-1.7 fold is shown as C)”.

For `Cc1ccc(Nc2cc(CN3CCc4ccccc4C3)nc(N)n2)cc1` [Example 35, 6-((3,4-Dihydroisoquinolin-2(1H)-yl)methyl)-N^4-p-tolylpyrimidine-2,4-diamine], under setting [1], the “Activity L444P” value is reported as “B (Increase in comparison with non-treated of >1.7-2.0 fold is shown as B)”.

In the case of `COc1cccc(Nc2cc(CN(C)Cc3ccccc3)nc(N)n2)c1` [Example 17], the “Activity L444P” value under setting [1] is on record as “B (Increase in comparison with non-treated of >1.7-2.0 fold is shown as B)”.

`Cc1ccc(Nc2nc(N)nc(CN3CCN(c4ccccc4)CC3)n2)cc1` [6-((4-phenylpiperazin-1-yl)methyl)-N2-(p-tolyl)-1,3,5-triazine-2,4-diamine]: the “Activity L444P” value under setting [2] is given as “C (Increase in comparison with non-treated of 1.2-1.7 fold is shown as C)”.

For `Cc1ccc(CN(C)Cc2nc(N)nc(Nc3ccccc3C)n2)cc1` [6-((methyl(4-methylbenzyl)amino)methyl)-N2-(o-tolyl)-1,3,5-triazine-2,4-diamine], the “Activity L444P” value under setting [2] is reported as “C (Increase in comparison with non-treated of 1.2-1.7 fold is shown as C)”.
